Measured values from US7993931B1, “Oxygen-18 labeled organic acids and use in diagnosing metabolic disorders” (Quest Diagnostics Investments Incorporated, priority 2003, dated 2011).

Test: Stability of oxygen-18 labeled organic acids in the sample preparation procedure (L/L extraction, MTBSTFA derivatization, GC/MS)
Conditions: for stability of the labeled acid (in words): prior to L/L extraction, during an 80 minute and during a 120 minute L/L extraction
[1] = Before L/L extraction, in diluted normal human urine, pH 1, ethyl-acetate extraction, GC/MS [M-57]+

Structure (SMILES)	Single labeled (Before L/L extraction) [%]	Unlabeled (Before L/L extraction) [%]	Double labeled [1] [%]	Double labeled (L/L 80 min. extraction) [%]	Single labeled (L/L 80 min. extraction) [%]	Unlabeled (L/L 80 min. extraction) [%]	Double labeled (L/L 120 min. extraction) [%]	Single labeled (L/L 120 min. extraction) [%]	Unlabeled (L/L 120 min. extraction) [%]	stability of the labeled acid (in words)	further results
CC(C)CC(O)C(=O)O (stereo not drawn) [2-hydroxy isocaproic acid]	15.6	0.4	84	83	16.5	0.5	79	20.6	0.4	exhibited stability	
CC(O)C(C)C(=O)O (stereo not drawn) [3-hydroxy-2-methyl butyric acid]	14.9	0.1	85	85	14.9	0.1	85	14.7	0.3	exhibited stability	
O=C(O)Cc1ccc(O)cc1 [4-hydroxy phenyl acetic acid]	15.5	0.8	83.7	81	15.8	3.2	78	19.7	2.3	exhibited stability	
CCCC(=O)NCC(=O)O [Oxygen-18-Containing Butyryl Glycine, Butyryl glycine]	14.5	0.5	85	85	14.8	0.2	83	16.2	0.8	exhibited stability	
CC=CC(=O)NCC(=O)O [Oxygen-18-Containing Crotonyl Glycine, Crotonyl glycine]	15.5	0.1	84	85	14.8	0.2	81	17.4	1.6	exhibited stability	
O=C(O)CCCC(=O)O [Oxygen-18-Containing Glutaric Acid, Glutaric acid]		0.1				0.2			0.2	exhibited stability	Oxygen 18 × 1 (Before L/L extraction): 0.4%; Oxygen 18 × 2 (Before L/L extraction): 3.5%; Oxygen 18 × 3 (Before L/L extraction): 27%; Oxygen 18 × 4 (Before L/L extraction): 69%; Oxygen 18 × 1 (L/L 80 min. extraction): 0.8%; Oxygen 18 × 2 (L/L 80 min. extraction): 3%; Oxygen 18 × 3 (L/L 80 min. extraction): 28%; Oxygen 18 × 4 (L/L 80 min. extraction): 68%; Oxygen 18 × 1 (L/L 120 min. extraction): 0.8%; Oxygen 18 × 2 (L/L 120 min. extraction): 4%; Oxygen 18 × 3 (L/L 120 min. extraction): 30%; Oxygen 18 × 4 (L/L 120 min. extraction): 65%
O=C(O)C(O)CO (stereo not drawn) [Oxygen-18-Containing Glyceric Acid, Glyceric acid]	13	0	87	84	15.5	0.5	81	17.6	2.4	exhibited stability	
CC(=O)CC(=O)CCC(=O)O [Oxygen-18-Containing Succinyacetone, Succinyacetone]		0				0			0.2	exhibited stability	Oxygen 18 × 1 (Before L/L extraction): 0.2%; Oxygen 18 × 2 (Before L/L extraction): 2.8%; Oxygen 18 × 3 (Before L/L extraction): 25%; Oxygen 18 × 4 (Before L/L extraction): 72%; Oxygen 18 × 1 (L/L 80 min. extraction): 0.2%; Oxygen 18 × 2 (L/L 80 min. extraction): 2.8%; Oxygen 18 × 3 (L/L 80 min. extraction): 27%; Oxygen 18 × 4 (L/L 80 min. extraction): 70%; Oxygen 18 × 1 (L/L 120 min. extraction): 0.8%; Oxygen 18 × 2 (L/L 120 min. extraction): 3%; Oxygen 18 × 3 (L/L 120 min. extraction): 29%; Oxygen 18 × 4 (L/L 120 min. extraction): 67%
CCC(O)C(=O)O (stereo not drawn) [oxygen-18-containing 2-OH Butyric Acid, 2-hydroxy-butyric acid]	15	1	84	83	17.4	0.11	80	19.7	0.3	exhibited stability	
